Consider two molecules from patent US20090137652A1, “METHODS FOR NEUROPROTECTION” (priority 2005, published 2009).

Counter-ions that a name gives are not always drawn.

One assay concerns PC12 cells. The experiment in a line: PC12 cell serum withdrawal model, MTS cell survival assay. The class given is cell-based. From the text: Serum withdrawal is a cytotoxic environmental challenge that results in cell death in cultured cell lines as well as in primary cells of various tissue origins, including nerve cells. In particular, pheochromocytoma (PC) 12 cells have been widely employed as an in vitro neuronal cell model for a wide variety of neurodegenerative and cell death related disorders (Muriel, et al, Mitochondrial free calcium levels (Rhod-2 fluorescence) and ultrastructural alterations in neuronally differentiated PC12 cells during ceramide-dependent cell death, J. Comp. Neurol., 2000, 426(2), 297-315; Dermitzaki, et al, Opioids transiently prevent activation of apoptotic mechanisms following short periods of serum withdrawal, J. Neurochem., 2000, 74(3), 960-969; Carlile, et al, Reduced apoptosis after nerve growth factor and serum withdrawal: conversion of tetrameric glyceraldehyde-3-phosphate dehydrogenase to a dimer, Mol. Pharmacol., 2000, 57(1), 2-12). PC12 cells were cultured in sterile media (RPMI 1640) supplemented with 10% heat-inactivated horse serum and 5% fetal bovine serum (FBS). The culture medium also contained Penicillin-Streptomycin-Neomycin antibiotic (50 µg, 50 µg, 100 µg, respectively). Medium was exchanged every other day and the cells were passed in log phase near confluence.
The control cells were cultured in regular media without any treatment. An enantiomer of Formula 7 or Formula 8 (10 µM) was mixed well in the medium and then applied to the cells. For the 2 day assay, an enantiomer of Formula 7 or Formula 8 (10 µM) was only applied to the cells once at the time of serum withdrawal. For the 7 day assay, an enantiomer of Formula 7 or Formula 8 (10. mu.M) was applied to the cells at the time of serum withdrawal and every 48 hr thereafter when cells were changed with fresh new serum-free medium. In the serum withdrawal group, the cells were cultured in serum-free medium with no additional enantiomer of Formula 7 or Formula 8. Cell survival was determined by the 3-(4,5-dimethylthiazol-2-yl)-5-(3-[…])-2-(4-sulfophenyl)-2H-tetrazolium inner salt (MTS) assay at 2 or 7 days after serum withdrawal.
At the end of the experiment, cells were washed with fresh medium and incubated with MTS solution in a humidified 37° C. with 5% CO2 incubator for 1.5 hr. After the incubation period, the cells were immediately analyzed using a Softmax program (Molecular Devices). […] The assay is based on the cellular conversion of the tetrazolium salt, MTS, into a formazan that is soluble in tissue culture medium and measured directly at 490 nm in 96-well assay plates. The absorbance is directly proportional to the number of living cells in culture. The arbitrary absorbance reading in control cells is expressed as 100% survival rate.

Assay [1] concerns transient cerebral ischemia middle cerebral artery occlusion (MCAO) rat model. The experiment in a line: Transient cerebral ischemia middle cerebral artery occlusion (MCAO) rat model, infarct volume. In kind it is in vivo. The note with it: MK 801 3 mg/kg i.p., N 12. As to the method: The enantiomer of Formula 7 (test compound) was investigated in the transient cerebral ischemia middle cerebral artery occlusion (MCAO) rat model (as described in Nagasawa H. and Kogure K., Stroke, 1989, 20, 1037; and, Zea Longa E., Weinstein P. R., Carlson S, and Cummins R., Stroke, 1989, 20, 84) using male Wistar rats at 10 and 100 mg/kg (i.v.). MK 801 (Dizocilpine maleate; CAS Registry number 77086-22-7, a commercially available neuroprotectant compound) was used as a positive control (3 mg/kg, i.p.).
Rats (n=12) were randomly allocated to one of four experimental groups and were anesthetized. Blood flow from the internal carotid artery, anterior cerebral artery and posterior cerebral artery into the middle cerebral artery was blocked by this procedure. One hour after blockage, animals were treated over a 1 hour period with vehicle (administered i.v. over the one hour period), control (administered as a single i.p. dose at the start of the one hour period) and two doses of the enantiomer of Formula 7 (administered i.v. over the one hour period). Two hours after blockage, reperfusion was performed.
The animals were sacrificed and […] coronal sections of each brain were prepared. One in every forty sections (i.e. every […]) from the front to the occipital cortex was used to quantify the extent of the cerebral lesion. Slides were prepared using sections stained (according to the Nissl procedure) with cresyl violet and were examined under a light microscope.
Regional ischemic surface areas in the coronal sections of individual rats were determined according to the presence of cells with morphological changes. The areas of neuronal injury or infarction were measured and then added. The cortex and striatum volume were calculated for each animal (total ischemic surface area×0.8 mm (thickness)).
The mean volumes (.+−.S.E.M.) for each animal randomly assigned to the four experimental groups were compared using one-way ANOVA (one way ANOVA is a statistical method which compares 3 or more unmatched groups) followed by Dunnett's t-test (both methods incorporated in Statview 512+software, BarinPower, Calabasas, Calif., USA).

For `NC(=O)OC[C@H](OC(N)=O)c1ccccc1Cl` [Formula 8], in the assay on PC12 cells (10 µM applied once at serum withdrawal, MTS assay 2 days after serum withdrawal, control 100, serum-free 49.6), the “2 Day Survival Rate” value is recorded as 66.4 ± 5.4^1%. Besides, the “7 Day Survival Rate” value in the assay with PC12 cells (10 µM at serum withdrawal and every 48 hr, MTS assay 7 days after serum withdrawal, control 100, serum-free 23.8) is given as 85.2 ± 0.6^2%.

For the molecule `C[C@]12N[C@H](Cc3ccccc31)c1ccccc12` [MK 801, Dizocilpine maleate, reference compound], the “Mean Infarct Volume ± S.E.M., Striatum” value in assay [1] (vehicle 79.4) is recorded as 56.1 ± 5.3^2 mm^3. In assay [1] (vehicle 275.5), the “Mean Infarct Volume ± S.E.M., Cortex” value is listed as 95.8 ± 24.5^1 mm^3. In addition, in assay [1] (vehicle 354.9), the “Mean Infarct Volume ± S.E.M., Total Volume” value is reported as 151.9 ± 28.7^1 mm^3.
